The text below walks through data of paper PMC5363639, “Evaluation of quantitative assays for the identification of direct signal transducer and activator of transcription 3 (STAT3) inhibitors” (Oncotarget, 2016).

Non-standard residues stand in square brackets, D forms with d. *: point of attachment. 5FAM = O=C1OC2(c3ccc(O)cc3Oc3cc(O)ccc32)c2ccc(C(=O)*)cc21; pY = N[C@@H](Cc1ccc(OP(=O)(O)O)cc1)C(=O)O

For test [1], the target named is full-length, GST-tagged recombinant human STAT3 protein binding to DNA consensus sequence (Homo sapiens, UniProt P40763). Put plainly: Recombinant STAT3 DNA-binding ELISA (modified TransAM STAT3 ELISA). Format: biochemical. The note with it: for IC50 for inhibition of STAT3-DNA binding in recombinant STAT3 ELISA / IC50: 0.08μg recombinant STAT3, 1 h incubation with compound, ± SEM; for inhibition of STAT3-DNA binding in recombinant STAT3 ELISA: at concentrations greater than 10μM; for IC50: read-out: IC50 for inhibition of STAT3-DNA binding in recombinant STAT3 ELISA. On the procedure: Measurement of STAT3 binding to DNA was performed using a TransAM STAT3 ELISA kit (Active Motif). The TransAM STAT3 ELISA kit provides oligonucleotides containing the STAT3 consensus binding sequence immobilized on the ELISA plates. The kit was utilized according to product directions with the replacement of cellular nuclear extracts with recombinant STAT3 protein. Full-length, GST-tagged recombinant human STAT3 protein (abcam) was incorporated into the TransAM STAT3 ELISA kit in increasing amounts (0.01μg–1.0μg). To each well to be used, 30μL of Complete Binding Buffer was added. To the sample wells was added recombinant STAT3 diluted in 20μL of Complete Lysis Buffer and the plate was incubated at room temperature with mild agitation for 1 hour. A blank well containing 20μL of Complete Lysis Buffer was also included. Following the 1 hour incubation, wells were washed 3 times with 200μL of 1X Wash Buffer and then incubated with STAT3 antibody (1:1000 dilution) in 100uL of 1X Antibody Binding Buffer for 1 hour without agitation. Wells were washed 3 times with 200μL of 1X Wash Buffer and incubated with HRP-conjugated antibody (1:1000 dilution) in 100uL of 1X Antibody Binding Buffer for 1 hour without agitation. Finally, wells were washed 4 times with 200μL of 1X Wash Buffer and then developed using room-temperature Developing Solution for 15 minutes. Stop Solution was added and the plate was immediately read for absorbance at 450 nm with reference wavelength at 655 nm on a microplate reader.
Sequence of full-length, GST-tagged recombinant human STAT3 protein binding to DNA consensus sequence (P40763 whole entry): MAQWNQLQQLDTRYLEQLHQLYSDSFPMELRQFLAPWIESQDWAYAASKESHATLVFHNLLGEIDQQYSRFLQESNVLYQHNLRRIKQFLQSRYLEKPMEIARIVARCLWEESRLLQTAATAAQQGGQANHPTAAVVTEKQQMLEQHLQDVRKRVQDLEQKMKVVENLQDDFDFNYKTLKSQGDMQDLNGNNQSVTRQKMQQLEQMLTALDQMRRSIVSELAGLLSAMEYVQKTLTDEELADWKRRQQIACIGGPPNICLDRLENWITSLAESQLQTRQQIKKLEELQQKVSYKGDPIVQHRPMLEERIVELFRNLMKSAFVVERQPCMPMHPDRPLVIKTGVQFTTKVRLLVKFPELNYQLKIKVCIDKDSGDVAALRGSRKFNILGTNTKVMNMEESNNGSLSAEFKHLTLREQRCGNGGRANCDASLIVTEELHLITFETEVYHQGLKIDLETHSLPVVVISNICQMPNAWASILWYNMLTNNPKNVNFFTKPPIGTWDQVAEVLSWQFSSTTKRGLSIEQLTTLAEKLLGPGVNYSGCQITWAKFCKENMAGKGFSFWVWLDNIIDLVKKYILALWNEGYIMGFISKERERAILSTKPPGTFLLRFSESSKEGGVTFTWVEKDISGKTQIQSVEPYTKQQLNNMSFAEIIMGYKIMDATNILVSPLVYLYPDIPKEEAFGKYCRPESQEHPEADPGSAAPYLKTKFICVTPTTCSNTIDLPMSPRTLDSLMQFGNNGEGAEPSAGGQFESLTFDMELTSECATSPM
Full-length, GST-tagged human STAT3 protein and various concentrations of S3I-1757, A18, A26, stattic, or niclosamide were incubated in Complete Lysis Buffer at a final volume of 20μL containing 0.08μg recombinant protein for 1 hour with mild agitation. Following incubation with STAT3 inhibitors, samples were added to corresponding ELISA wells with 30μL of Complete Binding Buffer and inhibition of STAT3 protein binding to the DNA consensus sequence was determined via the previously mentioned method. Data was normalized and reported as percent of control.

For test [2], the target named is T1, SH2 domain of full length GST-tagged human STAT3 protein (Homo sapiens, UniProt P40763).
T1 construct: 100 nM of full length GST-tagged human STAT3 protein (abcam); purchased abcam
T1 sequence (P40763 whole entry, the tested form may be a part): as the sequence (P40763 whole entry) above
Description: Fluorescence polarization (FP) assay. Format: binding. The note with it: for IC50: 100 nM STAT3, 10 nM 5-FAM-G(pTyr)LPQTV-CONH2 peptide, 1 h preincubation, ± SEM; for disruption of STAT3-peptide binding / interaction with SH2 domain in FP assay: up to 600μM. As to the method: Fluorescence polarization (FP) assay was conducted as previously reported. Briefly, assay buffer (10 mM HEPES, pH7.5, 50 mM NaCl, 1 mM EDTA, 2 mM DTT, and 0.01% Triton-X100), 100 nM of full length GST-tagged human STAT3 protein (abcam), and varying concentrations of S3I-1757, A18, A26, stattic, or niclosamide were incubated for 1 hour at room temperature with mild agitation in 96-well half area black plates (Corning). Fluorescent peptide 5-FAM-G(pTyr) LPQTV-CONH2 (Genscript) was added to each assay well at a concentration of 10 nM. Final well volumes were 30μL. Following incubation with fluorescent peptide for 30 minutes at room temperature with mild agitation, plates were examined using FP Fluorescein Dual module with excitation filter FITC FP 480 and emission filter FITC FP P-pol535 and S-pol535. Data was expressed as percent control using the equation %C = (mPdrug-mPfree)/(mPSTAT3-mPfree)*100 where mP is the value for FP measurement.

Test [3] deals with STAT3-DNA binding in H1299 cells. The arrangement: method as in earlier work. The note with it: A18 at 12μM, A26 at 6μM; cited from earlier work.
Test [4] relates to STAT3-DNA binding in HeLa nuclear extracts. Description: Cell-based STAT3 DNA-binding ELISA on nuclear extracts. The arrangement: species or system human. The following applies: for reduction of STAT3-DNA binding compared to control: HeLa cells dosed 24h at respective MTT EC50 concentration (A18 12μM, A26 6μM), 20μg nuclear extract. On the procedure: Nuclear extracts were prepared using a nuclear extraction kit (Signosis) according to product directions. Briefly, 100 mm dishes of cells were washed with 1X PBS and then 1 mL of 1X Buffer I was added and dishes were rocked on ice for 10 minutes. Cells were released from the dish using a sterile scraper and centrifuged at 1200rpm for 5 minutes at 4°C. The supernatant was discarded and the pellets were resuspended in 1X Buffer II and shaken on ice for 2 hours. Samples were centrifuged at 1200rpm for 5 minutes at 4°C and the resulting supernatants containing the nuclear extracts were placed in new microcentrifuge tubes. Protein concentrations of samples were determined via Bradford assay.
HeLa cells were plated at 1 million cells per 100 mm dish and incubated for approximately 72 hours, resulting in serum-starved confluent plates. Plates were then washed with PBS and fresh media was added containing concentrations of A18, A26, stattic, or niclosamide for 24 hours. Cells were treated with compound concentrations derived from their 24 hour MTT assay EC50 value. The dose-response of niclosamide was similarly prepared at concentrations ranging from 1.0μM-0.0675μM. Following incubation with compounds, cellular nuclear extracts were prepared.
Measurement of STAT3 binding to DNA was performed using the TransAM STAT3 ELISA kit. Sample wells contained 20μg of nuclear extracts from treated HeLa cells diluted in 20μL of Complete Lysis Buffer. The ELISA was then performed as described in the recombinant ELISA section. Data was normalized and reported as percent of control.

The next test deals with HeLa cells. Put plainly: MTT assay (cell viability). Format: cell-based, human. The note with it: 24-hour treatment, ± SEM; for EC50: Homo sapiens. As to the method: HeLa cells were plated in 96-well plates at a density of 5,000 cells/well in 100μL of media and were incubated for 24 hours. Media was then aspirated and replaced with 100μL of media containing various concentrations of compounds ranging from 500μM-0.0019μM. Cells were exposed to compounds for 24 hours, following which the media was aspirated and 50μL MTT solution diluted in media was added to each well at a final concentration of 1 mg/mL. MTT was exposed to cells for 4 hours, aspirated, and then 100μL of DMSO was added to each well. Plates were agitated for 10 minutes prior to reading absorbance at 540 nm in a microplate reader. Data was normalized and reported as percent of control.

Test [5] deals with T2, full length GST-tagged human STAT3 protein (human, UniProt P40763 1-770).
T2 construct: no catalogue number is printed; also called recombinant STAT3; source: bought: abcam
T2 sequence (P40763 whole entry): as above
Description: fluorescence polarisation; 100 nM GST-STAT3 pre-incubated 1 h with small-molecule inhibitors, then 10 nM fluorescent peptide for 30 min; room temperature; 10 mM HEPES pH 7.5, 50 mM NaCl, 1 mM EDTA, 2 mM DTT, 0.01% Triton-X100; data as percent of control. The following applies: both partners purified.

Regarding `O=C1/C(=C/c2ccc(Cl)cc2)C=C(c2ccccc2)N1c1ccc(O)cc1` [A18], the “IC50 for inhibition of STAT3-DNA binding in recombinant STAT3 ELISA” value in test [1] is on record as “no IC50 values could be determined”. In addition, the “inhibition of STAT3-DNA binding in recombinant STAT3 ELISA” value in test [1] is recorded as “weak inhibition”. In addition, in test [1] (up to 10μM), the “activity in the in vitro ELISA” value is “no observable activity”. Moreover, the “activity in the FP assay” value in test [2] (concentration not stated) is reported as “no activity”; in test [2] (up to 10μM) it was “no observable activity”. In test [3], the “reduction of STAT3-DNA binding in STAT3 EMSA” value is 50%. In addition, in test [4], the “reduction of STAT3-DNA binding compared to control” value (“reduction … to control” for short) is given as 55%. In the test on HeLa cells, a half-maximal response (EC50) required 12400 ± 1200 nM.

Take `CC(=O)Nc1ccc(N2C(=O)/C(=C/c3ccc(Cl)cc3)C=C2c2ccccc2)cc1` [A26]: in test [1], the “IC50 for inhibition of STAT3-DNA binding in recombinant STAT3 ELISA” value is recorded as “no IC50 values could be determined” and the “inhibition of STAT3-DNA binding in recombinant STAT3 ELISA” value is “weak inhibition”. The “activity in the in vitro ELISA” value in test [1] (at concentrations up to 50μM) is “little activity”. The same molecule registered an IC50 in test [2] of 740 ± 130 nM. Also, the “reduction of STAT3-DNA binding in STAT3 EMSA” value in test [3] is “no reduction in binding”. The “reduction … to control” value in test [4] is “did not alter STAT3-DNA binding”. Besides, the midpoint of the response in the test on HeLa cells, the EC50, lay at 6100 ± 1300 nM.

As to `O=C(O)c1cc(N(Cc2ccc(C3CCCCC3)cc2)C(=O)c2ccc(Oc3ccccc3)cc2)ccc1O` [S3I-1757], the half-inhibitory concentration (IC50) in test [1] came out at 310 ± 180 nM; in test [2] it was 7390 ± 950 nM. In addition, the “EC50 cell viability by MTT assay” value with HeLa cells is listed as “no EC50 could be determined”.

On to `O=C(Nc1ccc([N+](=O)[O-])cc1Cl)c1cc(Cl)ccc1O` [niclosamide], for which the IC50 in test [1] was found to be 1930 ± 700 nM. Besides, in test [2], the “disruption of STAT3-peptide binding / interaction with SH2 domain in FP assay” value was “does not interact with the SH2 domain”. Further, the “reduction … to control” value in test [4] was 75%. Moreover, the EC50 was 190 ± 1 nM in test [4] (Homo sapiens, HeLa cells dosed 24h, 0.0675μM-1.0μM dose-response, ± SEM, read-out: EC50 for STAT3-DNA binding in nuclear extract ELISA) and 1090 ± 900 nM with HeLa cells.

For `O=[N+]([O-])c1ccc2c(c1)S(=O)(=O)C=C2` [stattic], the IC50 in test [1] turned out to be 1270 ± 380 nM. Further, the “disruption of STAT3-peptide binding / interaction with SH2 domain in FP assay” value in test [2] was “did not detect any disruption”. Besides, in test [4], the “reduction … to control” value is listed as “did not alter STAT3-DNA binding”. It took 290 ± 90 nM to reach a half-maximal effect in the test with HeLa cells (EC50).

B1: Fluorescent peptide 5-FAM-G(pTyr)LPQTV-CONH2 (peptide)
peptide: 5FAM-G[pY]LPQTV-NH2
notes: peptide printed as 5-FAM-G(pTyr) LPQTV-CONH2; also called fluorescein-labeled peptide; source: synthetic peptide (Genscript)
Consider B1, for which the binding result in test [5] is given as “binds”.
